Data from patent publication US5945453A, “Benzoylphenylurea insecticides to control cockroaches” (Dow AgroSciences LLC, priority 1997, dated 1999).

Tests used:
Format in all cases: in vivo
[1] = tested on: Red Imported Fire Ant (RIFA) (Solenopsis invicta); assay: Laboratory ant bait study, 3-4 day exposure to bait, brood reduction; details: for Time to Achieve 50% Brood Reduction / Time to Achieve 90% Brood Reduction: RIFA, best results achieved with compound
Description: (§1) Laboratory ant bait studies were carried out with Red Imported Fire Ant (RIFA) (Solenopsis invicta) and Pharaoh Ant (Monomorium pharaonis). Chitin synthesis inhibitors, such as the compounds of the invention, control ants by killing the molting larvae and/or pupae and potentially preventing the hatching of eggs. Because adult workers are not affected, control is measured by effects on the brood.
(§2) The studies involved 3-4 day exposure to bait. These limited exposure studies more accurately represent real world bait availability than continuous exposure.

[2] = tested on: Pharaoh Ant (Monomorium pharaonis); assay: as above; details: 0.1%, best results achieved with compound
Description: as §1, §2

[3] = tested on: German cockroach 2nd instars (Blattella germanica); assay: Continuous, low-dose ingestion exposure (treated cornmeal)
Source text: (§3) German cockroach 2nd instars (Blattella germanica)
Continuous, low-dose ingestion exposure (treated cornmeal)

[4] = tested on: German cockroach 2nd instars (Blattella germanica); assay: Limited ingestion exposure (48 hr) to treated cornmeal; details: for LC50, high / LC50, low: 48 hr limited exposure; for LC50, high: 'high' column; for LC50, low: 'low' column (also holds the value where only one is printed); for potency versus hexaflumuron: limited exposure
Source text: as §3
Limited ingestion exposure (48 hr) to treated cornmeal

[5] = tested on: Cat Flea (Ctenocephalides felis); assay: Continuous exposure of larvae to treated media, impact on subsequent adult emergence; details: for LC50 / LC90: continuous exposure of larvae, adult emergence
Source text: Cat Flea (Ctenocephalides felis)
Continuous exposure of larvae to treated media, impact on subsequent adult emergence

[6] = tested on: Subterranean Termite (Reticulitermes flavipes); assay: Limited exposure (7 days) with mortality determined at 14, 28, 42, and 56 days; details: for LT50 (days) for 10000 ppm treatment: limited exposure (7 days); for speed of activity, Compound 1 versus hexaflumuron: limited exposure
Source text: (§4) Subterranean Termite (Reticulitermes flavipes)
Limited exposure (7 days) with mortality determined at 14, 28, 42, and 56 days

[7] = tested on: Subterranean Termite (Reticulitermes virginicus); assay: Continuous exposure (56 days) to treated paper; details: for LT50 (days) for 200 ppm trt / LC50 / speed of action versus hexaflumuron: continuous exposure
Source text: Subterranean Termite (Reticulitermes virginicus)
(§5) Continuous exposure (56 days) to treated paper

[8] = tested on: Subterranean Termite (Reticulitermes flavipes); assay: Continuous exposure (56 days) to treated paper; details: for performance versus hexaflumuron: Eastern Subterranean termite
Source text: as §4, §5

Daphnia = assay: Activity against Daphnia, 48 hr exposure to treated water
Source text: 48 hr exposure to treated water

[9] = Southeastern subterranean termite

## O=C(NC(=O)c1c(F)cccc1F)Nc1cc(Cl)c(OC(F)(F)C(F)C(F)(F)F)c(Cl)c1 (stereo not drawn) [Compound 1, N-[3,5-Dichloro-4-(1,1,2,3,3,3-hexafluoropropoxy)phenyl]-N'-(2,6-difluorobenzoyl) urea]
[1]; 0.1%
  Time to Achieve 50% Brood Reduction: 2-3 wks
  Time to Achieve 90% Brood Reduction: 4 wks
[1]; short exposure study with RIFA
  potency versus hexaflumuron: significantly more potent than hexaflumuron
[2]
  Time to Achieve 50% Brood Reduction: 2 wks
  Time to Achieve 90% Brood Reduction: 4 wks
[3]
  potency versus hexaflumuron: far superior to hexaflumuron
[3]; 21 days
  LC50: 14.5 ppm
[3]; 42 days
  LC50: < 0.23 ppm
[4]; 21 days
  LC50, high: 52.7 ppm
  LC50, low: < 1.0 ppm
[4]; 42 days
  LC50, high: 30.1 ppm
  LC50, low: < 1.0 ppm
[4]
  potency versus hexaflumuron: far more potent than hexaflumuron
[5]
  LC50: 8.6 ppm
  LC90: 12.8 ppm
[5]; fleas
  activity versus hexaflumuron: far more active against fleas than was hexaflumuron
[6]
  LT50 (days) for 10000 ppm treatment: 34.5 days
  speed of activity, Compound 1 versus hexaflumuron: comparable in speed of activity
[7]
  LT50 (days) for 200 ppm trt: 10.2 days
[7]; 21 days
  LC50: 3.5 ppm
[7]; 35 days
  LC50: < 0.78 ppm
[7]; [9]
  speed of action versus hexaflumuron: faster acting that hexaflumuron
[8]
  LT50 (days) for 200 ppm trt: 32.9 days
  performance versus hexaflumuron: no performance advantage
[8]; 21 days
  LC50: > 200 ppm
[8]; 35 days
  LC50: < 0.78 ppm

## CCN(C(=O)Nc1cc(Cl)c(OC(F)(F)C(F)C(F)(F)F)c(Cl)c1)C(=O)c1c(F)cccc1F (stereo not drawn) [Compound 2, N-[3,5-Dichloro-4-(1,1,2,3,3,3-hexafluoropropoxy)phenyl]-N'-(2,6-difluorobenzoyl)-N'-ethyl urea]
[3]
  potency versus hexaflumuron: far superior to hexaflumuron
[3]; 21 days
  LC50: 9.3 ppm
[3]; 42 days
  LC50: 5.4 ppm
[4]; 21 days
  LC50, low: 192.0 ppm
[4]
  potency versus hexaflumuron: far more potent than hexaflumuron
[5]
  LC50: 329.4 ppm
  LC90: > 1000 ppm
Daphnia
  activity against Daphnia versus Compound 1 or hexaflumuron: far less active against Daphnia than were Compound 1 or hexaflumuron
[8]
  LT50 (days) for 200 ppm trt: 34.6 days
  performance versus hexaflumuron: no performance advantage
[8]; 21 days
  LC50: > 200 ppm
[8]; 35 days
  LC50: 22.5 ppm

## CCN(C(=O)NC(=O)c1c(F)cccc1F)c1cc(Cl)c(OC(F)(F)C(F)C(F)(F)F)c(Cl)c1 (stereo not drawn) [Compound 3, N-[3,5-Dichloro-4-(1,1,2,3,3,3-hexafluoro-propoxy)phenyl]-N'-(2,6-difluorobenzoyl)-N-ethylurea]
[3]
  potency versus hexaflumuron: far superior to hexaflumuron
[3]; 21 days
  LC50: 1.3 ppm
[3]; 42 days
  LC50: 0.78 ppm
[4]; 21 days
  LC50, low: 52.2 ppm
[4]; 42 days
  LC50, low: 30.9 ppm
[4]
  potency versus hexaflumuron: far more potent than hexaflumuron
[5]
  LC50: 78.0 ppm
  LC90: 460.7 ppm
Daphnia
  activity against Daphnia versus Compound 1 or hexaflumuron: far less active against Daphnia than were Compound 1 or hexaflumuron
[7]
  LT50 (days) for 200 ppm trt: 9.7 days
[7]; 21 days of exposure, Southeastern subterranean termite
  potency versus hexaflumuron: more potent at 21 days of exposure
[7]; 21 days
  LC50: 62.4 ppm
[7]; 35 days
  LC50: < 0.78 ppm
[7]; [9]
  speed of action versus hexaflumuron: faster acting that hexaflumuron
[8]
  performance versus hexaflumuron: no performance advantage

## O=C(NC(=O)c1c(F)cccc1F)Nc1cc(Cl)c(OC(F)(F)C(F)F)c(Cl)c1 [hexaflumuron, reference compound]
[1]; 0.25%
  Time to Achieve 50% Brood Reduction: 4 wks
  Time to Achieve 90% Brood Reduction: 10 wks
[3]; 21 days
  LC50: > 200 ppm
[3]; 42 days
  LC50: > 200 ppm
[4]; 21 days
  LC50, low: > 10,000 ppm
[4]; 42 days
  LC50, low: > 10,000 ppm
[5]
  LC50: 65.7 ppm
  LC90: 333.5 ppm
[6]
  LT50 (days) for 10000 ppm treatment: 32.9 days
  speed of activity, Compound 1 versus hexaflumuron: comparable in speed of activity
[7]
  LT50 (days) for 200 ppm trt: 16.3 days
[7]; 21 days
  LC50: 28.8 ppm
[7]; 35 days
  LC50: < 0.78 ppm
[8]
  LT50 (days) for 200 ppm trt: 25.7 days
[8]; 21 days
  LC50: > 200 ppm
[8]; 35 days
  LC50: < 0.78 ppm
